Reference: patent publication US20240043473A1, “NOOTROPIC PEPTIDES FOR TREATING LYSOSOMAL STORAGE DISEASES” (Phoenix Nest Inc., priority 2021, published 2024)
“Also recorded” adds a separate entry of the source. No end group written: not given here.

How the values were obtained:
Format in all cases: in vivo, mouse
[1] = tested on: BDNF; test: Mature BDNF levels in dissected hippocampi by Western blot
Protocol: Method: AVP6 was administered intranasally at 50 μg/kg (5 μl/nostril) for 10 consecutive days. After sacrifice, changes in the levels of BDNF, a protein involved in long-term synaptic potentiation and memory consolidation, in the dissected hippocampi of mice were analyzed by Western blots.
The cerebral cortical tissues were homogenized in five volumes of RIPA lysis buffer (50 mM Tris-HCl pH 7.4, 150 mM NaCl, 1% NP-40, 0.25% sodium deoxycholate, 0.1% SDS, 2 mM EDTA, 1 mM PMSF), containing protease and […] inhibitor cocktails (Sigma, cat#4693132001 and 4906837001), using a Dounce homogenizer. The homogenates were kept on ice for 30 min and centrifuged at 13,000 g at 4° C. for 25 min. The supernatant was centrifuged again at 13,000 g for 15 min, the protein concentration in resulting lysates was measured, and 20 μg of protein from each sample was separated by SDS-PAGE on 4-20% precast polyacrylamide gel (Bio-Rad, 4561096). Western blot analyses were performed according to standard protocols using Anti-BDNF and α-tubulin (1:2000, mouse, DSHB) antibodies. Equal protein loading was confirmed by Ponceau S staining and normalized for tubulin immunoreactive band. Detected bands were quantified using ImageJ 1.50i software (National Institutes of Health, Bethesda, MD, USA).

[2] = Body weight measured weekly during chronic administration; details: chronic intranasal administration; Hgsnat^P304L or WT mice
Protocol: WT, and Hgsnat^P304L mice were randomly assigned to the treatment and control groups. The cohort size (18 mice/sex/treatment) was calculated based on mean variability of replicates in previous behavioral tests in Hgsnat^P304L mice to detect a ˜40% difference between means (power=0.8). Treatment was started at weaning (P21) which corresponds to neurodevelopmental human age of 3 years, the time of disease onset for majority of Sanfilippo patients. Since most patients are diagnosed post-symptomatically, this age would most likely become the treatment starting point for the most of patients. […] To test if chronic administration of the peptide results in major metabolic changes, the mouse body weight was measured weekly.

[3] = tested on: β-hexosaminidase; test: Total β-hexosaminidase activity in brain homogenates; details: chronic daily 50 μg/kg BW, vs saline
Protocol: The activity of β-hexosaminidase was measured by combining 2.5 μl of 10× diluted homogenate ([…] of protein) with 15 μl of 0.1 M sodium acetate buffer (pH 4.2), and 12.5 μl of 3 mM 4-methylumbelliferyl N-acetyl-β-D-glucosaminide (Sigma-Aldrich) followed by incubation for 30 min at 37° C. The reaction was stopped 0.4 M glycine buffer (pH 10.4) and fluorescence was measured as above.
(§1) Starting from 3 weeks of age, WT C57B16 and homozygous Hgsnat^P304L male and female mice were randomly divided in treatment and control groups (6-13 mice/sex/genotype/treatment; see Table I). The control group was daily administered with saline (5 μL to each nostril), while for the treatment group, saline was supplemented with 125 µg of AVP6/mL, which would result in a dose of approximately 50 μg/kg BW/day. The peptide formulation was prepared once, aliquoted and kept frozen at −80° C. until use. At 4 months, all mice were studied by EPM, OF, YM and NOR behavioral tests. Administration of the drug or saline was continued through the days on which the assays were conducted. Then approximately at 5 months 4-5 mice in each group were sacrificed. Their blood plasma was collected, and their tissues were either snap-frozen or fixed and cryopreserved to analyze CNS pathology as described above. […] When such signs were detected, the mice were studied by ERG and sacrificed within 1-2 days. […]

[4] = tested on: Hgsnat^P304L MPS IIIC mice; test: Y-Maze test; details: chronic daily intranasal 50 μg/kg BW from 3 weeks
Protocol: The spontaneous alternation behavior, spatial working memory and exploratory activity of mice were evaluated using a white Y-maze as follows. The maze consisted of three identical white Plexiglas arms (40×10×20 cm, 120° apart) under dim lighting conditions. Each mouse was placed at the end of one arm, facing the center, and allowed to explore the maze for 8 min. All experiments were performed at the same time of the day and by the same investigator to avoid circadian and handling bias. Sessions were video-recorded and arm entries were scored by a trained observer, unaware of the mouse genotype or treatment. Successful alternation was defined as consecutive entries into a new arm before returning to the two previously visited arms.
Alternation was calculated as: [number of alternations/total number of arm entries−2]×100.
Starting from 3 weeks of age, WT C57B16 and homozygous Hgsnat^P304L male and female mice were randomly divided in treatment and control groups (6-13 mice/sex/genotype/treatment; see Table I). The control group was daily administered with saline (5 μL to each nostril), while for the treatment group, saline was supplemented with 125 µg of AVP6/mL, which would result in a dose of approximately 50 μg/kg BW/day. […] When such signs were detected, the mice were studied by ERG and sacrificed within 1-2 days. […]

[5] = tested on: Hgsnat^P304L mice; test: Survival / onset of lethal urinary retention under chronic daily treatment; details: chronic daily 50 μg/kg BW; AVP6-treated Hgsnat^P304L mice
Protocol: as §1, with “sacrificed.” for “sacrificed. Their blood plasma was collected, and their tissues were either snap-frozen or fixed and cryopreserved to analyze CNS pathology as described above.”
Unlike human MPS III patients, Hgsnat^P304L mice at the age of approximately 8 months develop urinary retention resulting in abdominal distension and requiring humane euthanasia. […] Previously we determined the average survival age of Hgsnat^P304L mice as 42 weeks. To test whether the AVP6 treatment delayed development of this phenotype, mice in both treatment and vehicle groups were examined for the signs of urinary retention on a daily basis, starting from the age of 7 months, and immediately sacrificed, when abdominal distension was detected. […]

## AVP6: N-terminally acetylated Semax, a nootropic peptide having the amino acid sequence of MEHFPGP (SEQ ID NO:1) (Ac-MEHFPGP)
[1]; acute (24 h) intranasal administration, MPSIIIC mice
  mature BDNF levels: significantly increased
[1]; intranasal 50 μg/kg daily for 10 days, 4-month-old Hgsnat-Geo mice
  mature BDNF levels in hippocampus: significantly increased; also recorded: increases BDNF levels; also recorded: partially restored levels; also recorded: partially rescued
[2]
  body weight and body weight gain, treated vs untreated: No difference in body weight and body weight gain
[3]; Hgsnat^P304L mice at 5 months
  total β-hexosaminidase activity in total brain homogenates: remained similar
[3]; Hgsnat^P304L mice at terminal timepoint
  total β-hexosaminidase activity in brain homogenates: trend for reduction
[4]; Hgsnat^P304L mice at 4 months
  spatial memory (alternation between arms), Y-Maze: a significant difference between saline-treated and peptide-treated mice was observed only, when we pooled the data for both sexes together; also recorded: rescues deficits in spatial and short-term memory; also recorded: show the rescue of all above deficits
[4]; Hgsnat^P304L mice at 6 months
  spatial memory (percent of alternation between arms), Y-Maze: demonstrated alternation similar to that of the WT mice; also recorded: partially rescues deficits in spatial and short-term memory; also recorded: show rescue of all above deficits
[5]
  average survival age / life span: 49 weeks
